Holding throughout (test): growth of human tumour cells (NCI), 48 h
Assay [1] concerns A549 NSCLC.
Assay [2] has as its system HCC-2998 colon.
For assay [3], the system named is HCT-116 colon.
Assay [4] concerns HOP-92 NSCLC.
In assay [5] the test system is KM12 colon.
Assay [6] concerns M14 melanoma.
The test system of assay [7] is MOLT-4 leukemia.
Assay [8] relates to NCI-H226 lung.
Assay [9] deals with NCI-H460 lung.
The subject of assay [10] is SF-268 CNS.
The subject of assay [11] is SK-MEL-5 melanoma.
Assay [12] has as its system SNB-75 CNS.
Assay [13] relates to SW-620 colon.
The test system of assay [14] is TK-10 renal.
Assay [15] has as its system UACC-62 melanoma.
The test system of assay [16] is MDA-MB-231 breast.
In assay [17] the test system is PC-3 prostate.

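Growth conditions: 96-well plates. Treatment: test compound, 48 hours, 5 concentrations. Analysis: linear interpolation between bracketing concentrations; unreached endpoints set to highest concentration. Definition used: TGI = concentration required for complete inhibition of growth.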

Turning to `CCC1CN2CCC3(c4ccccc4)CC(C(=O)OC)=CC1C23` (stereo not drawn), the TGI in [1] came to 35.8 µM; in assay [2], 30.7 µM; in assay [3] it was 29.4 µM; in assay [4], 25.9 µM; in assay [5], 28.2 µM; in assay [6], 28.2 µM. Also, the TGI in assay [7] was greater than 100 µM; in [8], 36.2 µM; in assay [9], 32.5 µM; in assay [10], 27.7 µM; in [11], 30.2 µM; in assay [12], 51 µM. For the same compound, the TGI in [13] was found to be 31.8 µM; in assay [14], 58.6 µM; in assay [15], 30.2 µM.

Take `COc1ccc(NC2CC(C)N(C(=O)c3ccccc3)O2)cc1` (stereo not drawn): the TGI in assay [1], in assay [2], in [3], in assay [6], in [16] and in assay [7] was greater than 10 µM in each case. The TGI in assay [9], in assay [17], in assay [10], in assay [11], in [12] and in assay [13] was greater than 10 µM in each case. Moreover, the TGI in assay [14] is greater than 10 µM.

For the compound `CCOC(OC1=C(C#N)CCCC1)C(C)[Se]c1ccccc1` (stereo not drawn), the TGI in [1] is greater than 100 µM; in assay [2], greater than 100 µM; in assay [3], greater than 100 µM; in assay [4] it was 67.3 µM; in assay [5], greater than 100 µM; in assay [6] it was greater than 100 µM. Also, the TGI is 79.9 µM in assay [7]; greater than 100 µM in [8]; greater than 100 µM in assay [9]; 46.6 µM in assay [10]; 55.6 µM in [11]; greater than 100 µM in assay [12]. Moreover, the figures for the TGI in assay [14] and in [15] were greater than 100 µM and 63.2 µM, respectively.

For `O=C(CC1C(=O)c2ccccc2C1=C1C(=O)c2ccccc2C1=O)c1ccccc1` (stereo not drawn), the TGI in assay [1], in assay [2], in [4], in assay [5], in assay [6] and in assay [7] was greater than 100 µM in each case. The TGI in assay [8], in [9], in assay [10], in [11], in [12] and in assay [13] was greater than 100 µM in each case. For the same compound, the TGI in assay [14] and in assay [15] was greater than 100 µM throughout.

Consider `CC(C)(C)S(=O)OC12CC3CC(CC(C3)C1)C2` (stereo not drawn), for which the TGI in [1], in [3], in assay [6], in [7], in assay [8] and in assay [9] was greater than 100 µM throughout. Also, the TGI in assay [10], in [11], in assay [12], in assay [13], in assay [14] and in assay [15] was greater than 100 µM throughout.

For `COC(=O)c1ccc(NCc2cc(O)ccc2O)cc1`, the TGI in assay [1] stood at 39.2 µM; in assay [2] it was 29.5 µM; in assay [3] it was 35.7 µM; in assay [4], 29.1 µM; in assay [5], 29.6 µM; in assay [6], 39.5 µM. For the same compound, the TGI in assay [7] was 31.5 µM; in assay [8] it was 24.9 µM; in [9] it was 52.2 µM; in assay [17], 19.7 µM; in [10], 31.5 µM; in [11] it was 23.7 µM. Further, the TGI amounted to 38.9 µM in assay [12], 23.4 µM in assay [13], 31.6 µM in assay [14] and 27 µM in assay [15].

For `Cc1cc(N(CCC#N)CCC#N)ccc1C=Nc1ccc(C(=O)NN2C(=O)/C(=C/c3ccc(N(CCC#N)CCC#N)cc3)N=C2c2cc([N+](=O)[O-])ccc2Cl)cc1`, the TGI in assay [1], in assay [2], in [3], in [4], in assay [5] and in [6] was greater than 100 µM in each case. The TGI in assay [8], in assay [9], in [10], in assay [11], in assay [12] and in assay [13] was greater than 100 µM in each case. Moreover, the TGI in assay [14] and in assay [15] was greater than 100 µM each time.

Consider `COCCOC(=O)C(C)=[N+]=[N-]`, for which the TGI in [2], in assay [3], in assay [5], in [16], in assay [8] and in assay [9] was greater than 100 µM each time. For the same compound, the TGI in assay [17], in assay [10], in assay [11], in assay [12], in [13] and in assay [14] was greater than 100 µM each time. The compound further registered a TGI in assay [15] greater than 100 µM.

For the compound `COc1cc2c(cc1OC)C(=O)N(NC1=NCCN1)C2=O`, the TGI in assay [1], in assay [2], in [3], in assay [5], in [6] and in assay [16] was greater than 100 µM throughout. Moreover, the TGI in [7], in [8], in [9], in [17], in assay [10] and in [11] was greater than 100 µM throughout. The TGI in assay [13], in [14] and in [15] was greater than 100 µM in each case.

As for `CC(=O)C1=CCC2c3[nH]c4ccccc4c3CCN2C1` (stereo not drawn), the TGI in [1], in [2], in assay [3], in assay [4], in assay [5] and in assay [6] was greater than 100 µM in each case. The TGI in [7] is greater than 100 µM; in assay [8], greater than 100 µM; in [9] it was greater than 100 µM; in [10], greater than 100 µM; in assay [11], greater than 100 µM; in assay [12], 88.3 µM. Besides, the TGI in assay [13] and in assay [14] was greater than 100 µM throughout.

On to `Cc1ccc(S(=O)(=O)c2c(N)n(CCN(C)C)c3nc4ccccc4nc23)cc1`, for which the TGI in assay [1], in [2], in assay [3], in assay [4], in assay [5] and in [6] was greater than 100 µM in each case. Further, the TGI in [7], in assay [8], in [9], in assay [10], in assay [11] and in assay [12] was greater than 100 µM throughout. Besides, the TGI in assay [14] was greater than 100 µM.

With `N#Cc1sc2c(c1O)c(=O)n(-c1ccccc1)c(=S)n2-c1ccccc1`, the TGI in assay [1], in assay [2], in [4], in assay [5], in [6] and in [16] was greater than 100 µM each time. Also, the TGI in [8], in assay [9], in assay [10], in assay [11], in assay [12] and in [13] was greater than 100 µM each time. In addition, the TGI in assay [14] and in assay [15] was greater than 100 µM in each case.

With `COc1ccc(CCNCCCC2c3ccccc3-c3ccccc32)cc1OC`, the TGI was 31.4 µM in assay [1]; 3.88 µM in [2]; 25.8 µM in assay [3]; 18.2 µM in assay [4]; 30.4 µM in [5]; 11.8 µM in assay [6]. Moreover, the TGI in assay [7] was 41.8 µM; in assay [8], 31.4 µM; in assay [9] it was 18.3 µM; in assay [17], 29.9 µM; in assay [10], 30.3 µM; in assay [11] it was 23.3 µM. Also, the TGI in assay [12] came to 27.2 µM; in assay [13], 20.4 µM; in [14], 27.7 µM; in assay [15], 30.3 µM.

On to `O=C1NC2(CCN(CCCC3(c4ccc(F)cc4)OCCO3)CC2)Oc2ccccc21`, for which the TGI in [1], in assay [2], in assay [3], in assay [4], in assay [5] and in [6] was greater than 100 µM each time. The TGI in assay [16], in assay [7], in assay [8], in assay [9], in [10] and in assay [11] was greater than 100 µM throughout. Besides, the TGI in assay [12], in assay [13], in assay [14] and in [15] was greater than 100 µM each time.

As to `CC(CCCOC(c1ccccc1)(c1ccccc1)c1ccccc1)OC(=O)Nc1ccccc1` (stereo not drawn), the TGI was 23.2 µM in assay [1]; 27.3 µM in assay [2]; 23 µM in assay [3]; 21.7 µM in [4]; 27.1 µM in assay [5]; 27.2 µM in [6]. For the same compound, the TGI is 24 µM in assay [7]; 25.6 µM in assay [8]; 24.8 µM in assay [9]; 25.9 µM in [10]; 27.1 µM in assay [11]; 27.9 µM in assay [12]. In addition, the TGI in assay [13] was 27.4 µM; in [14], 34.7 µM; in assay [15], 25.5 µM.

In the case of `CN(C)Cc1cc(C(C)(C)C)cc(C2CCCCC2)c1O`, the TGI in assay [1] was 26.5 µM; in assay [3] it was greater than 100 µM; in assay [5], 26.4 µM; in assay [6], greater than 100 µM; in assay [16] it was 26.7 µM; in assay [7] it was 22.6 µM. In addition, the TGI in assay [8] stood at 31.2 µM; in assay [9], 38.3 µM; in assay [17], 26.4 µM; in assay [10] it was 32.5 µM; in assay [11], 27.4 µM; in [12] it was 22.1 µM. In addition, the TGI in assay [13] is 30.2 µM; in assay [14], 29.1 µM; in [15], 29.8 µM.

As to `Cc1ccc(NC(=O)C(=O)Cc2cc[n+]([O-])cc2)cc1`, the TGI in assay [1], in assay [2], in assay [3], in assay [4], in assay [5] and in assay [6] was greater than 100 µM throughout. Further, the TGI in assay [7], in assay [8], in [9], in assay [10], in assay [11] and in assay [12] was greater than 100 µM each time. Moreover, the TGI in assay [13], in [14] and in assay [15] was greater than 100 µM in each case.

Take `O=C(NNC(=O)c1ccccc1O)c1ccc(O)cc1`: the TGI in [1] is greater than 100 µM; in assay [3] it was greater than 100 µM; in assay [5] it was greater than 100 µM; in assay [6] it was greater than 100 µM; in assay [16], 69.7 µM; in [7], greater than 100 µM. The TGI in assay [8], in assay [9], in [17], in assay [10], in assay [11] and in assay [12] was greater than 100 µM each time. For the same compound, the TGI in assay [13], in assay [14] and in assay [15] was greater than 100 µM each time.

With `COc1ccccc1CNC(=O)[C@H](Cc1ccc(O)cn1)NC(C)=O`, the TGI in assay [1], in assay [2], in [3], in [4], in assay [5] and in [6] was greater than 100 µM throughout. For the same compound, the TGI in assay [8], in assay [9], in assay [17], in assay [10], in [11] and in assay [13] was greater than 100 µM each time. Moreover, the TGI in [14] and in [15] was greater than 100 µM each time.

The values are drawn from PubChem BioAssay (NCI).
